# Test system: Radical scavenging activity
# Experiment: Antioxidant activity assessed as DPPH free radical scavenging activity
# Type: functional
row,SMILES,EC50 [µg]
1,O=C(O)c1cc(O)c(O)c(O)c1 [GALLIC ACID],3.8
2,COc1c(O)cc2oc(-c3ccc(O)c(O)c3)c(O)c(=O)c2c1O [PATULETIN],10.6
3,O=C(O)[C@H]1O[C@@H](Oc2c(O)cc(O)c3c(=O)c(O)c(-c4ccc(O)c(O)c4)oc23)[C@H](O)[C@@H](O)[C@@H]1O [HIBIFOLIN],16
4,O=c1c(O)c(-c2ccc(O)c(O)c2)oc2cc(O)c(O)c(O)c12 [QUERCETAGETIN],10.5
5,COc1ccc(C2Oc3cc(O)cc(O)c3C(=O)C2O)cc1O (centres undefined) [TAMARAXETIN],> 100
6,Cc1c(C)c2c(c(C)c1O)CCC(C)(C(=O)O)O2 (centres undefined) [TROLOX],12.5
7,O=c1c(O)c(-c2ccc(O)c(O)c2)oc2c(O)c(O)cc(O)c12 [GOSSYPETIN],5.5
8,O=c1oc2c(O)c(O)cc3c(=O)oc4c(O)c(O)cc1c4c23 [ELLAGIC ACID],4.8
9,C[C@@H]1O[C@@H](OC[C@H]2O[C@@H](Oc3c(-c4ccc(O)c(O)c4)oc4cc(O)cc(O)c4c3=O)[C@H](O)[C@@H](O)[C@@H]2O)[C@H](O)[C@H](O)[C@H]1O [RUTIN],15.5
10,COc1cc(C2Oc3cc(O)cc(O)c3C(=O)C2O)ccc1O (centres undefined) [DIHYDROISORHAMNETIN],> 100
11,COc1cc(-c2oc3cc(O)cc(O)c3c(=O)c2O)ccc1O [ISORHAMNETIN],26.2
12,O=C1c2c(O)cc(O)cc2O[C@H](c2ccc(O)cc2)[C@H]1O [DIHYDROKAEMPFEROL],> 100
13,O=c1c(O)c(-c2ccc(O)cc2)oc2cc(O)cc(O)c12 [KAEMPFEROL],14.6
14,COc1ccc(-c2oc3cc(O)cc(O)c3c(=O)c2O)cc1 [KAEMPFERIDE],97
15,O=c1c(O)c(-c2ccc(O)c(O)c2)oc2c(O[C@@H]3O[C@H](CO)[C@@H](O)[C@H](O)[C@H]3O)c(O)cc(O)c12,25.5
16,O=c1c(O)c(-c2ccc(O)c(O)c2)oc2cc(O)cc(O)c12 [QUERCETIN],14.4
17,COc1ccc(-c2oc3cc(O)cc(O)c3c(=O)c2O)cc1O [TAMARIXETIN],> 100
18,COc1ccc(C2Oc3cc(O)cc(O)c3C(=O)C2O)cc1 (centres undefined) [DIHYDROKAEMPFERIDE],> 100
19,O=C1c2c(O)cc(O)cc2O[C@H](c2ccc(O)c(O)c2)[C@H]1O [(+)-TAXIFOLIN],24

# — ChEMBL document CHEMBL1821647, “Synthesis and antioxygenic activities of seabuckthorn flavone-3-ols and analogs” (Bioorg Med Chem Lett, 2011)
